Test results reported in patent US7015306B2 (BioSynthema, Inc., priority 1999, dated 2006).
Where a SMILES comes first, the peptide text is derived from it. [ ]: non-standard residue; d: D form. The star is where a group is joined. ξ: configuration not given here. DTPA = O=C(O)CN(CCN(CC(=O)O)CC(=O)O)CCN(CC(=O)O)CC(=O)*; Phe(4-guanidino) = N=C(N)Nc1ccc(C[C@H](N)C(=O)O)cc1; ξGly(4-Pip(1-amidino)) = N=C(N)N1CCC(C(N)C(=O)O)CC1; ξPhe(4-guanidino) = N=C(N)Nc1ccc(CC(N)C(=O)O)cc1; X1 = CC(C)C[C@@H](CN[C@@H](CC(C)C)C(N)=O)N*; ξGly(piperidin-4-yl) = NC(C(=O)O)C1CCNCC1; Cha = N[C@@H](CC1CCCCC1)C(=O)O; Tle = CC(C)(C)[C@H](N)C(=O)O; Aba(Apy) = not defined here

Legend:
neurotensin receptors = neurotensin receptors (Homo sapiens, UniProt P30989); assay: Competitive binding assay on frozen tissue sections of receptor-positive human tumors vs radioiodinated native neurotensin; details: for IC50: C-terminus modified derivatives
Chain of neurotensin receptors (P30989 whole entry): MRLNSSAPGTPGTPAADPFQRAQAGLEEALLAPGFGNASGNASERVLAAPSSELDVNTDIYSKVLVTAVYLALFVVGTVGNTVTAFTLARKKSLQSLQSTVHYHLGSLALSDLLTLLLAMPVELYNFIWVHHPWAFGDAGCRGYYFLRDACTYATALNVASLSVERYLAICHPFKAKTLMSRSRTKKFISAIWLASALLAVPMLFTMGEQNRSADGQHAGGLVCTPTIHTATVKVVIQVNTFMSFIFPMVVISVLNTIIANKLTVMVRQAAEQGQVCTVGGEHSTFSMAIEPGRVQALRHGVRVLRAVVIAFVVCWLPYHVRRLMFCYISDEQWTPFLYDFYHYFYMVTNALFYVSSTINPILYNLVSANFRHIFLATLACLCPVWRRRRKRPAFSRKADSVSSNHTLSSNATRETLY
Excerpt: Frozen tissue sections from receptor-positive human tumors were used in a competitive binding assay.

[1] = In vitro serum stability assay (HPLC) of In-111 labeled peptide; assay type: in vitro ADME, human; details: for remaining at 4 h: t = 4 h
Procedure: (§1) All reagents were purchased from Sigma unless otherwise noted. The peptide and ^111InCl3 in 0.05 N HCl were incubated in a sodium acetate/ascorbic acid buffer for 30 minutes at room temperature. The reaction was diluted with 5% ethanol/95% PBS before using in subsequent in vitro assays.
(§2) Human serum was purchased from Sigma (H 1388). The labeled peptide was incubated in either human serum or rat urine at 37EC for the specified amount of time. An aliquot was filtered through a 0.45 μm syringe filter prior to HPLC injection.

[2] = In vitro urine stability assay (HPLC) of In-111 labeled peptide; assay type: in vitro ADME; details: for % of compound present at 4 hours in urine / % of peptide at 4 hours after incubation at 37EC, Urine / HPLC Evaluation of Urine Stability at 37EC, Urine, t = 0: rat urine; for remaining at 4 h: rat, t = 4 h
Procedure: as §1, §2

[3] = human serum, 37EC, read-out: HPLC Evaluation of Serum Stability at 37EC, Serum, t = 4 h
[4] = 37EC, read-out: HPLC Evaluation of Urine Stability at 37EC, Urine, t = 4 h
[5] = Table 4, human serum, read-out: Serum Stability, Serum (t = 4 h)
[6] = Table 4, rat urine, read-out: Urine Stability, Urine (t = 4 h)

Compound	% of peptide at 4 hours after incubation at 37EC, Serum ([1]; human serum, 37EC)	% of peptide at 4 hours after incubation at 37EC, Urine ([2]; 37EC)	Kd (neurotensin receptors; Table 3)	also measured
CC[C@H](C)[C@H](NC(=O)[C@H](Cc1ccc(O)cc1)NC(=O)[C@@H]1CCCN1C(=O)[C@H](CCCNC(=N)N)NC(=O)C(NC(=O)[C@@H]1CCCN1C(=O)[C@@H](CCCCN)NC(=O)CN(CCN(CCN(CC(=O)O)CC(=O)O)CC(=O)O)CC(=O)O)C1CCN(C(=N)N)CC1)C(=O)N[C@@H](CC(C)C)C(=O)O (single isomer, unassigned) [Compound II, DTPA-DLys-Pro-Gly(PipAm)-Arg-Pro-Tyr-Ile-Leu-OH]	19.5%	16.6%		Kd (neurotensin receptors; Table 1): 2.7 nM; % of compound present at 4 hours in serum ([1]; human serum, 37EC): 19.5%; % of compound present at 4 hours in urine ([2]; 37EC): 16.6%
CC[C@H](C)[C@H](NC(=O)[C@H](Cc1ccc(O)cc1)NC(=O)[C@@H]1CCCN1C(=O)[C@H](CCCNC(=N)N)NC(=O)C(CCc1ccnc(N)n1)NC(=O)[C@@H]1CCCN1C(=O)[C@@H](CCCCN)NC(=O)CN(CCN(CCN(CC(=O)O)CC(=O)O)CC(=O)O)CC(=O)O)C(=O)N[C@@H](CC(C)C)C(=O)O (single isomer, unassigned) [Compound III, DTPA-DLys-Pro-Aba(Apy)-Arg-Pro-Tyr-Ile-Leu-OH]	4.3%	6.0%		Kd (neurotensin receptors; Table 1): 68 nM; % of compound present at 4 hours in serum ([1]; human serum, 37EC): 4.3%; % of compound present at 4 hours in urine ([2]; 37EC): 6.0%
CC(C)C[C@H](NC(=O)[C@@H](NC(=O)[C@H](Cc1ccc(O)cc1)NC(=O)[C@@H]1CCCN1C(=O)[C@H](CCCNC(=N)N)NC(=O)C(NC(=O)[C@@H]1CCCN1C(=O)[C@@H](CCCCN)NC(=O)CN(CCN(CCN(CC(=O)O)CC(=O)O)CC(=O)O)CC(=O)O)C1CCN(C(=N)N)CC1)C(C)(C)C)C(=O)O (single isomer, unassigned) [Compound X, DTPA-DLys-Pro-Gly(PipAm)-Arg-Pro-Tyr-tBuGly-Leu-OH]	87.5%	63.0%	3.5 nM	IC50 (neurotensin receptors): 3.5 nM
CC[C@H](C)[C@H](NC(=O)[C@H](Cc1ccc(O)cc1)NC(=O)[C@@H]1CCCN1C(=O)C(Cc1ccc(NC(=N)N)cc1)NC(=O)[C@H](CCCNC(=N)N)NC(=O)[C@@H]1CCCN1C(=O)[C@@H](CCCCN)NC(=O)CN(CCN(CCN(CC(=O)O)CC(=O)O)CC(=O)O)CC(=O)O)C(=O)N[C@@H](CC(C)C)C(=O)O (single isomer, unassigned) [DTPA-DLys-Pro-Arg-(4-Gu)Phe-Pro-Tyr-Ile-Leu-OH]	16.3%	0%	83 nM	
CC[C@H](C)[C@H](NC(=O)[C@H](Cc1ccc(O)cc1)NC(=O)[C@@H]1CCCN1C(=O)C(CCc1ccnc(N)n1)NC(=O)[C@H](CCCNC(=N)N)NC(=O)[C@@H]1CCCN1C(=O)[C@@H](CCCCN)NC(=O)CN(CCN(CCN(CC(=O)O)CC(=O)O)CC(=O)O)CC(=O)O)C(=O)N[C@@H](CC(C)C)C(=O)O (single isomer, unassigned) [DTPA-DLys-Pro-Arg-Aba(Apy)-Pro-Tyr-Ile-Leu-OH]	15.7%	4.7%	1200 nM	
CC[C@H](C)[C@H](NC(=O)[C@H](Cc1ccc(O)cc1)NC(=O)[C@@H]1CCCN1C(=O)[C@H](CCCNC(=N)N)NC(=O)C(Cc1ccc(NC(=N)N)cc1)NC(=O)[C@@H]1CCCN1C(=O)[C@@H](CCCCN)NC(=O)CN(CCN(CCN(CC(=O)O)CC(=O)O)CC(=O)O)CC(=O)O)C(=O)N[C@@H](CC(C)C)C(=O)O (stereo partly drawn) [Compound I, DTPA-DLys-Pro-(4-Gu)Phe-Arg-Pro-Tyr-Ile-Leu-OH]	14.1%	1.5%		Kd (neurotensin receptors; Table 1): 8.6 nM; % of compound present at 4 hours in serum ([1]; human serum, 37EC): 14.1%; % of compound present at 4 hours in urine ([2]; 37EC): 1.5%
CC(C)C[C@H](NC(=O)[C@@H](NC(=O)[C@H](Cc1ccc(O)cc1)NC(=O)[C@@H]1CCCN1C(=O)[C@H](CCCNC(=N)N)NC(=O)C(Cc1ccc(NC(=N)N)cc1)NC(=O)[C@@H]1CCCN1C(=O)[C@@H](CCCCN)NC(=O)CN(CCN(CCN(CC(=O)O)CC(=O)O)CC(=O)O)CC(=O)O)C(C)(C)C)C(=O)O (stereo partly drawn) [Compound IX, DTPA-DLys-Pro-Phe(4-guanyl)-Arg-Pro-Tyr-tBuGly-Leu-OH] ({DTPA}-[dK]P[ξPhe(4-guanidino)]RPY[Tle]L-OH)	72.0%	51.1%	12.5 nM	IC50 (neurotensin receptors): 12.5 nM
CC(C)C[C@H](NC(=O)[C@@H](NC(=O)[C@H](Cc1ccc(O)cc1)NC(=O)[C@@H]1CCCN1C(=O)[C@H](CCCNC(=N)N)NC(=O)C(NC(=O)[C@@H]1CCCN1C(=O)C(NC(=O)CN(CCN(CCN(CC(=O)O)CC(=O)O)CC(=O)O)CC(=O)O)C1CCNCC1)C1CCN(C(=N)N)CC1)C(C)(C)C)C(=O)O (stereo partly drawn) [Compound XI, DTPA-PipGly-Pro-Gly(PipAm)-Arg-Pro-Tyr-tBuGly-Leu-OH] ({DTPA}-[ξGly(piperidin-4-yl)]P[ξGly(4-Pip(1-amidino))]RPY[Tle]L-OH)	95.9%	93.6%	3.9 nM	
CC(C)C[C@H](NC(=O)[C@@H](NC(=O)[C@H](Cc1ccc(O)cc1)NC(=O)[C@@H]1CCCN1C(=O)[C@H](CCCNC(=N)N)NC(=O)C(NC(=O)[C@@H]1CCCN1C(=O)[C@H](CCCCN)NC(=O)[C@H](CC(N)=O)NC(=O)[C@H](CCC(=O)O)NC(=O)[C@@H](Cc1ccc(O)cc1)NC(=O)CN(CCN(CCN(CC(=O)O)CC(=O)O)CC(=O)O)CC(=O)O)C1CCN(C(=N)N)CC1)C(C)(C)C)C(=O)O (stereo partly drawn) [Compound XIII, DTPA-DTyr-Glu-Asn-Lys-Pro-Gly(PipAm)-Arg-Pro-Tyr-tBuGly-Leu-OH] ({DTPA}-[dY]ENKP[ξGly(4-Pip(1-amidino))]RPY[Tle]L-OH)	94.9%	86.8%	4.5 nM	
CC(C)(C)[C@H](NC(=O)[C@H](Cc1ccc(O)cc1)NC(=O)[C@@H]1CCCN1C(=O)[C@H](CCCNC(=N)N)NC(=O)C(NC(=O)[C@@H]1CCCN1C(=O)[C@H](CCCCN)NC(=O)[C@H](CC(N)=O)NC(=O)[C@H](CCC(=O)O)NC(=O)[C@@H](Cc1ccc(O)cc1)NC(=O)CN(CCN(CCN(CC(=O)O)CC(=O)O)CC(=O)O)CC(=O)O)C1CCN(C(=N)N)CC1)C(=O)N[C@@H](CC1CCCCC1)C(=O)O (stereo partly drawn) [Compound XIV, DTPA-DTyr-Glu-Asn-Lys-Pro-Gly(PipAm)-Arg-Pro-Tyr-tBuGly-Cha-OH] ({DTPA}-[dY]ENKP[ξGly(4-Pip(1-amidino))]RPY[Tle][Cha]-OH)	93.9%	81.8%	4.5 nM	
CC[C@H](C)[C@H](NC(=O)[C@H](Cc1ccc(O)cc1)NC(=O)[C@@H]1CCCN1C(=O)[C@H](CCCN=C(N)N)NC(=O)[C@H](Cc1ccc(NC(=N)N)cc1)NC(=O)[C@@H]1CCCN1C(=O)[C@@H](CCCCN)NC(=O)CN(CCN(CCN(CC(=O)O)CC(=O)O)CC(=O)O)CC(=O)O)C(=O)N[C@@H](CC(C)C)C(=O)O [In-111-DTPA-DK-P-F(Gu)-R-P-Y-I-L, metal not drawn]				remaining at 4 h [1, 3]: 14.1%; HPLC Evaluation of Serum Stability at 37EC, Serum, t = 0 ([1]; human serum): 98.7%; HPLC Evaluation of Urine Stability at 37EC, Urine, t = 0 [2]: 94.1%; remaining at 4 h [2, 4]: 1.5%
CC(C)C[C@@H](CN[C@@H](CC(C)C)C(N)=O)NC(=O)[C@H](Cc1ccc(O)cc1)NC(=O)[C@@H]1CCCN1C(=O)[C@H](CCCNC(=N)N)NC(=O)[C@H](Cc1ccc(NC(=N)N)cc1)NC(=O)[C@@H]1CCCN1C(=O)[C@@H](CCCCN)NC(=O)CN(CCN(CCN(CC(=O)O)CC(=O)O)CC(=O)O)CC(=O)O [In-111-DTPA-DK-P-F(Gu)-R-P-Y-L(Ψ-CH2NH)-L-NH2, metal not drawn] ({DTPA}-[dK]P[Phe(4-guanidino)]RPY-X1)				remaining at 4 h [1, 5]: 76.2%; remaining at 4 h [2, 6]: 95.7%
CC(C)C[C@H](NC(=O)[C@@H](NC(=O)[C@H](Cc1ccc(O)cc1)NC(=O)[C@@H]1CCCN1C(=O)[C@H](CCCN=C(N)N)NC(=O)[C@H](Cc1ccc(NC(=N)N)cc1)NC(=O)[C@@H]1CCCN1C(=O)[C@@H](CCCCN)NC(=O)CN(CCN(CCN(CC(=O)O)CC(=O)O)CC(=O)O)CC(=O)O)C(C)(C)C)C(=O)O [In-111-DTPA-DK-P-F(Gu)-R-P-Y-tBuG-L, metal not drawn] ({DTPA}-[dK]P[Phe(4-guanidino)]RPY[Tle]L-OH)				remaining at 4 h [1, 5]: 72%; remaining at 4 h [2, 6]: 51.1%
CC[C@H](C)[C@H](NC(=O)[C@H](Cc1ccc(O)cc1)NC(=O)[C@@H]1CCCN1C(=O)[C@H](CCCNC(=N)N)NC(=O)[C@H](CCCNC(=N)N)NC(=O)CN(CCN(CCN(CC(=O)O)CC(=O)O)CC(=O)O)CC(=O)O)C(=O)N[C@@H](CC(C)C)C(=O)O [In-111-DTPA-R-R-P-Y-I-L, metal not drawn, reference compound]				remaining at 4 h [1, 3]: 1.6%; HPLC Evaluation of Serum Stability at 37EC, Serum, t = 0 ([1]; human serum): 92%; HPLC Evaluation of Urine Stability at 37EC, Urine, t = 0 [2]: 96.7%; remaining at 4 h [2, 4]: 13%; remaining at 4 h [2, 6]: 14%
DTPA-DLys-Pro-Aba(Apy)-Aba(Apy)-Pro-Tyr-Ile-Leu-OH ({DTPA-dK-Pro-Aba(Apy)-Aba(Apy)}-PYIL-OH; reading uncertain)			> 10000 nM	
